Laboratory results taken from patent US10780094B2, “Use of carbonic anhydrase inhibitors for treatment of neurological and psychiatric disorders” (New York University, priority 2016, dated 2020).

Assays:
D3 cells = test: Mitochondrial and cytoplasmic calcium assay (Rhod-2 AM, Fluo-4 AM); format: cell-based, human; settings: highest doses; 45 minutes
Protocol: This assay was performed as published in [60]. Briefly, cells were plated on 25 mm optical borosilicate poly-L-lysine-coated sterile glass covers, (ThermoFisher, Waltham, Mass., US) at a 70% confluence. 24 hours later, cells were loaded with 5 μM Rhod-2 AM or 2.5 μM Fluo-4 AM on HBSS for 45 minutes. Then, cells were washed twice with HBSS and incubated for another additional 15 minutes on fresh HBSS, without Rhod-2 AM or Fluo-4 AM. After that, HBSS was replaced again by fresh HBSS, glasses were mounted on microscopy chambers and experiments were conducted, after adding the pre-aggregated peptides and/or the drugs. Cells were mounted on Sykes-Moores chambers (BellCo, Vineland, N.J., US) and imaged every 15 seconds for 45 min, at a 20× magnification, using a Nikon fluorescent microscope (Chiyoda, Tokyo, Japan). Images were processed using NIS-Elements and ImageJ software. Due to the rapidity of this experiment, the peptide was pre-aggregated as described above to obtain oligomers before being added to the cells.

[1] = system: caspase 3/7 in neuronal SHSY-5Y cells; test: Active caspase 3 staining and Caspase-Glo 3/7 activity after Aβ challenge; format: cell-based, human; settings: Aβ co-incubated with MTZ at both concentrations (100, 300 μM); 24 hours
Protocol: (§1) Caspase 9 and caspase 3/7 activation was measured by luminescent assays (Caspase-Glo 9 and caspase-Glo 3/7, Promega, Madison, Wis.), in cells treated with the Aβ peptides in DMEM without FBS. Briefly, 10,000 cells/well were plated in 96 wells plates and incubated for 24 hours with the freshly solubilized Aβ peptides. Caspase-Glo reagent was added to the cell cultures resulting in cell lysis, followed by caspase cleavage of the substrate and generation of a luminescent signal produced by the luciferase reaction. After 40 minutes incubation, the amount of caspase activity was evaluated in a plate-reading luminometer (Synergy HT Multi-Mode Microplate Reader, Biotek, Winooski, Vt.) as described in (Fossati et al., 2012b). To inhibit non-specific background activity, the proteasome inhibitor MG-132 was added to the Caspase-Glo reagent before the experiment as indicated by the manufacturer. In all cases results are expressed as fold-change compared to untreated control cells.
(§2) SHSY-5Y and Glioma cells were plated on chamber slides as above. Slides were pre-coated with Poly-D-Lysine 30 μg/ml for 2 hours for SHSY-5Y cells. […]

[2] = system: caspase 3/7 in glial cells; test: as above; format: cell-based, human; settings: Aβ co-incubated with MTZ at both concentrations (100, 300 μM); 24 hours
Protocol: as §1, §2

Aβ42 and Aβ40-Q22 [3] = target: T1, Aβ42 and Aβ40-Q22 (Homo sapiens, UniProt P05067, E693Q); test: Thioflavin T binding assay of Aβ aggregation; settings: 100 or 300 μM MTZ; aggregation up to 3 days
T1 construct: purchased James I. Elliott at Yale University (custom chemical peptide synthesis)
Protocol: Binding of the different Aβ peptides to Thioflavin-T was monitored by fluorescence evaluation, as described (Fossati et al., 2010; Walsh et al., 1999). Briefly, after peptide aggregation at 50 μM concentration in culture media in the presence or absence of MTZ, 6 μl aliquots from each of the time-points were added to 184 μl of 50 mM Tris-HCl buffer, pH 8.5, and 10 μl of 0.1 mM Thioflavin-T (Sigma). Fluorescence was recorded for 300 s in a LS-50B luminescence spectrometer (Perkin Elmer, Waltham, Mass.) with excitation and emission wavelengths of 435 and 490 nm (slit width 10 nm), respectively, as described (Solito et al., 2009; Viana et al., 2009).

[4] = system: mitochondria isolated from glial cells; test: Mitochondrial H2O2 production (Amplex Red) after Aβ challenge; format: cell-based, human
Protocol: Production of H2O2 from isolated mitochondria was measured using Amplex Red Hydrogen Peroxide/Peroxidase Assay (Life Technologies). Cells were treated with Aβ peptides, in the presence or absence of MTZ. After 16 hours of treatment, the mitochondrial fraction was separated from nuclear and cytoplasmic fractions as previously described (Fossati et al., 2013). Protein concentration in the mitochondrial fraction was measured by BCA assay (Thermo Scientific, Rockford, Ill.), in order to include the same amount of mitochondria in each sample. Functional mitochondrial fractions were distributed in a 96 well plate with Reaction Buffer and Amplex Red solution following the manufacturer's specifications. The plate was incubated in the dark at room temperature for 30 minutes before colorimetric evaluation of the Amplex Red reaction at 560 nm.

Aβ42 and Aβ40-Q22 [5] = target: T1, Aβ42 and Aβ40-Q22; test: Native gel electrophoresis and Western blot of Aβ aggregation species; settings: presence or absence of the CAI; 1 hour, 1 day, 3 days
Protocol: Electrophoretic analysis for assessment of peptide aggregation in the presence or absence of MTZ was performed under native conditions using 5-30% gradient polyacrylamide gels, in absence of SDS, using 25 mM Tris/glycine, pH 8.8, as running buffer, as previously described (Fossati et al., 2010). Aβ oligomerization patterns were visualized by subsequent WB analysis. Briefly, proteins were electrotransferred to nitrocellulose membranes ([…] pore size; Hybond-ECL, GE Healthcare Life Sciences, Piscataway, N.J.) at 400 mA for 2.5 h, using 10 mM 3-cyclohexylamino-1-propanesulfonic acid (CAPS; Sigma) buffer, pH 11.0, containing 10% (v/v) methanol. After blocking with 5% nonfat milk in TBS containing 0.1% Tween 20 (TBST), membranes were immunoreacted with a combination of mouse monoclonal anti-Aβ antibodies 4G8 (epitope: residues Aβ18-22) and 6E10 (epitope: residues Aβ3-8), both from Covance (Princeton, N.J.), at 1:3000 dilution each, followed by HRP-labeled anti-mouse IgG and ECL chemistry (Fossati et al., 2010).

Glioma cells = test: Cellular ROS (CellROX); format: cell-based, human; settings: Aβ42 in the presence or absence of MTZ; 24 hours
Protocol: For the last 30 minutes, the cells were incubated in the experimental medium at 37° C. with 5 μM CellROX Deep Red (Life Technologies) and 1 μg/ml Hoechst Stain (Immunochemistry Technologies, Bloomington, Minn.), as described by the manufacturer, followed by washes. Fluorescence was measured using a FlexStation 3 Multi-Mode Microplate Reader (Molecular Devices, Sunnyvale, Calif.).

## CC(=O)Nc1nnc(S(N)(=O)=O)s1 [ATZ, acetazolamide]
D3 cells
  Aβ-induced decrease in mitochondrial and cytoplasmic Ca2+: counteract the effect exerted by the peptide

## CC(=O)/N=c1/sc(S(N)(=O)=O)nn1C [MTZ, methazolamide]
[1]
  active-caspase 3 staining and activity of caspases 3/7: greatly suppressed
[2]
  active-caspase 3 staining and activity of caspases 3/7: greatly suppressed
Aβ42 and Aβ40-Q22 [3]
  Aβ fibrillization by Thioflavin T fluorescence: no significant difference in fibrillization
[4]; Example 1, Aβ with MTZ
  Aβ-induced increase in H2O2 production by isolated mitochondria: completely reverted
[4]; MTZ alone, untreated cells
  H2O2 production, drug alone: did not have any effect
D3 cells
  Aβ-induced decrease in mitochondrial and cytoplasmic Ca2+: counteract the effect exerted by the peptide
Aβ42 and Aβ40-Q22 [5]
  Aβ aggregation species in native gels: did not differ
Glioma cells
  levels of cellular ROS (CellROX): did not significantly change
